From ChEMBL document CHEMBL4507268 (2021)

How the values were obtained:
Conditions in all cases: Compound concentration 1.0 uM
[1] = biological target: T1, Ephrin type-A receptor 3 (Homo sapiens) (UniProt P29320)
T1 sequence (whole entry): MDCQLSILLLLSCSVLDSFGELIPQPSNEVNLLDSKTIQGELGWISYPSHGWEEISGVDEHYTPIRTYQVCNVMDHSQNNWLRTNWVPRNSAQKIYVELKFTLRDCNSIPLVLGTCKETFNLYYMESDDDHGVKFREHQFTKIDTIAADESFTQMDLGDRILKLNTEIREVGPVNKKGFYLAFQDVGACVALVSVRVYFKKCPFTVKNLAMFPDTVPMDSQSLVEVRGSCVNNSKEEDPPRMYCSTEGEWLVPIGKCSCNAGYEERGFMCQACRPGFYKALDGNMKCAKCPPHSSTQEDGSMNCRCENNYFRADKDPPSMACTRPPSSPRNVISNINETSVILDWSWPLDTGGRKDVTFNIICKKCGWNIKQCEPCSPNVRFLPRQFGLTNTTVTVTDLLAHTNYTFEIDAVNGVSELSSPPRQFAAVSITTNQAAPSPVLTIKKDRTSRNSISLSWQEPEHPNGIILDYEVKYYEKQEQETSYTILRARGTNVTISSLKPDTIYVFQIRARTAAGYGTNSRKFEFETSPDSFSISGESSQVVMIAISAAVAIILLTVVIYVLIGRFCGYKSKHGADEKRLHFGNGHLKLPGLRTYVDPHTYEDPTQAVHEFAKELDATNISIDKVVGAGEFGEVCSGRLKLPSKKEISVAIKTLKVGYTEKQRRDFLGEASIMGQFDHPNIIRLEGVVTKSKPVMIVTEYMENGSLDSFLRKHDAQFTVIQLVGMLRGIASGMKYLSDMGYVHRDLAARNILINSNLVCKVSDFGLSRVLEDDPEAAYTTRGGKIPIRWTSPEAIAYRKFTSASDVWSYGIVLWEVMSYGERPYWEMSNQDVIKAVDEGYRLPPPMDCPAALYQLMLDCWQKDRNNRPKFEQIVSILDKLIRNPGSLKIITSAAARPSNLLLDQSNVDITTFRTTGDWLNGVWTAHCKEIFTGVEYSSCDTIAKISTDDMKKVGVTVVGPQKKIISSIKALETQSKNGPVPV

[2] = biological target: Aurora kinase B (Homo sapiens) (UniProt Q96GD4)
Chain of Aurora kinase B (Homo sapiens) (Q96GD4 whole entry): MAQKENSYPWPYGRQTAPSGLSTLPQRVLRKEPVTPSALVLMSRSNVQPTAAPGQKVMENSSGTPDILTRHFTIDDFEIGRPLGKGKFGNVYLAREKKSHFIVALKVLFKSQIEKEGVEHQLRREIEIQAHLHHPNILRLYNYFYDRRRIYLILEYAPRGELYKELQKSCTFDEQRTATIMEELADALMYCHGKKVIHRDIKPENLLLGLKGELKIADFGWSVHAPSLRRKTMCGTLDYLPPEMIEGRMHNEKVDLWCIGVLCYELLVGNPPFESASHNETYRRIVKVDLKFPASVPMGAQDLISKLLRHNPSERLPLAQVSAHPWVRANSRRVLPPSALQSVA

[3] = biological target: [Pyruvate dehydrogenase (acetyl-transferring)] kinase isozyme 4, mitochondrial (Homo sapiens) (UniProt Q16654)
Chain of [Pyruvate dehydrogenase (acetyl-transferring)] kinase isozyme 4, mitochondrial (Homo sapiens) (Q16654 whole entry, looked up): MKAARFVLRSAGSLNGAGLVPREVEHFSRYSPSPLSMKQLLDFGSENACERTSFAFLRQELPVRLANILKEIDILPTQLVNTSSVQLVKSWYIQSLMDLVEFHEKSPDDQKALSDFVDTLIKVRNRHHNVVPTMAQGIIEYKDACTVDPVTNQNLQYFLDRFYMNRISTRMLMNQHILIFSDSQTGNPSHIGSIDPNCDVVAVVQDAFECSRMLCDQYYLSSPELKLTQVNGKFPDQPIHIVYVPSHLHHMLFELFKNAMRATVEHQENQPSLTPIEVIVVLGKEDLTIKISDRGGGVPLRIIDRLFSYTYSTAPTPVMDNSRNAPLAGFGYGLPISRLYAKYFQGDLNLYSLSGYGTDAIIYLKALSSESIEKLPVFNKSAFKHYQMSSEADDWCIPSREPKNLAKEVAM

[4] = biological target: Receptor tyrosine-protein kinase erbB-4 (Homo sapiens) (UniProt Q15303)
Chain of Receptor tyrosine-protein kinase erbB-4 (Homo sapiens) (Q15303 whole entry): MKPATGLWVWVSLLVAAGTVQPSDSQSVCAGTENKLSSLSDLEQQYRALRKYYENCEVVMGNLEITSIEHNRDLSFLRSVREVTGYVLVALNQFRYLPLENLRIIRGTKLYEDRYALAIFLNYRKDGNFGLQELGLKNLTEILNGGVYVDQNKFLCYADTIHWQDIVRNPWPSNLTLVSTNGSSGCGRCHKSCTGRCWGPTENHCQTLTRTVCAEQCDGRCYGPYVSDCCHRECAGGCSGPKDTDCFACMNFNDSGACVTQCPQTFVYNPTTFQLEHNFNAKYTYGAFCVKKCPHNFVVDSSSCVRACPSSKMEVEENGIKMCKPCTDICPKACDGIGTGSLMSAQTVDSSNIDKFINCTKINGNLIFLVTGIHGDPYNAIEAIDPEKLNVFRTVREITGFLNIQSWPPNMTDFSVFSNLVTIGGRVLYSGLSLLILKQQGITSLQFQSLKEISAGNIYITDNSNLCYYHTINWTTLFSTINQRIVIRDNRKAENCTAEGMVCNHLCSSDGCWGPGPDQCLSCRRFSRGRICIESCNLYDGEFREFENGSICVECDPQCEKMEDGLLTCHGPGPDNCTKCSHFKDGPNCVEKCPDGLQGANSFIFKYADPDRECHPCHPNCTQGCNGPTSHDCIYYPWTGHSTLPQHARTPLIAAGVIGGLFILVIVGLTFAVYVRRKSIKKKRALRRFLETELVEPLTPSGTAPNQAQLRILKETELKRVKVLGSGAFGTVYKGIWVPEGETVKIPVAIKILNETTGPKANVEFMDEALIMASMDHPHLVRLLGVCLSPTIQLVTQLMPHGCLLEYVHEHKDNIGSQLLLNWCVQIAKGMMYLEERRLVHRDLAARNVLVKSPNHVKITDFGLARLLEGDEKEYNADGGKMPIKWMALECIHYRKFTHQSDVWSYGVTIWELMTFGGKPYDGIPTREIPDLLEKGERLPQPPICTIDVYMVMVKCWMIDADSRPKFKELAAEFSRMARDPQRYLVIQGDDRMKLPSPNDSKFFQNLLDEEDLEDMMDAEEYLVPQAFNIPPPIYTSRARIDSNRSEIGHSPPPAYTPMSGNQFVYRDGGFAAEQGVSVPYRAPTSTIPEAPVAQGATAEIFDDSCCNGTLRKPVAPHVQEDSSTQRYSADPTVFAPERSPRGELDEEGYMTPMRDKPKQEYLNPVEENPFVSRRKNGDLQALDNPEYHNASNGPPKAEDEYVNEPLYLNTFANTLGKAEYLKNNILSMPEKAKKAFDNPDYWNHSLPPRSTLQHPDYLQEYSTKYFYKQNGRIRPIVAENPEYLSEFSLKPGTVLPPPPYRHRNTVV

[5] = biological target: T2, cGMP-dependent protein kinase 1 (Homo sapiens) (UniProt Q13976)
T2 sequence (whole entry): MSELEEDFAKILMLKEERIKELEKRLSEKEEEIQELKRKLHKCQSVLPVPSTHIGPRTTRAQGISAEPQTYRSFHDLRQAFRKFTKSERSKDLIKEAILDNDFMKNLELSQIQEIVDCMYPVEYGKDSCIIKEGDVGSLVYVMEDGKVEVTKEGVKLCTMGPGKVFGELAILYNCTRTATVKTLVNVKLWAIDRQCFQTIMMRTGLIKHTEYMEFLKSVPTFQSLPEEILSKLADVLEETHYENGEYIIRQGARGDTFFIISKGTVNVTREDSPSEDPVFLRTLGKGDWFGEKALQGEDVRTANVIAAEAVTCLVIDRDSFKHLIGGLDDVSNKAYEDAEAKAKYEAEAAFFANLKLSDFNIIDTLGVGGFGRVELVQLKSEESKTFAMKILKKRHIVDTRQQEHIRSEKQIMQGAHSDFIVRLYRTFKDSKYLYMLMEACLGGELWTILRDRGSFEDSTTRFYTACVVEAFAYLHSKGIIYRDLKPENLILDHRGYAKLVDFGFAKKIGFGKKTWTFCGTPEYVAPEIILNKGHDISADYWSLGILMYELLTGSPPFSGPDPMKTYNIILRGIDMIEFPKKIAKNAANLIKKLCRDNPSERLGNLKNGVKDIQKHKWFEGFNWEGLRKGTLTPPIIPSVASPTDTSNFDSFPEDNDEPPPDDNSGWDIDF

[6] = biological target: RAC-gamma serine/threonine-protein kinase (Homo sapiens) (UniProt Q9Y243)
Chain of RAC-gamma serine/threonine-protein kinase (Homo sapiens) (Q9Y243 whole entry): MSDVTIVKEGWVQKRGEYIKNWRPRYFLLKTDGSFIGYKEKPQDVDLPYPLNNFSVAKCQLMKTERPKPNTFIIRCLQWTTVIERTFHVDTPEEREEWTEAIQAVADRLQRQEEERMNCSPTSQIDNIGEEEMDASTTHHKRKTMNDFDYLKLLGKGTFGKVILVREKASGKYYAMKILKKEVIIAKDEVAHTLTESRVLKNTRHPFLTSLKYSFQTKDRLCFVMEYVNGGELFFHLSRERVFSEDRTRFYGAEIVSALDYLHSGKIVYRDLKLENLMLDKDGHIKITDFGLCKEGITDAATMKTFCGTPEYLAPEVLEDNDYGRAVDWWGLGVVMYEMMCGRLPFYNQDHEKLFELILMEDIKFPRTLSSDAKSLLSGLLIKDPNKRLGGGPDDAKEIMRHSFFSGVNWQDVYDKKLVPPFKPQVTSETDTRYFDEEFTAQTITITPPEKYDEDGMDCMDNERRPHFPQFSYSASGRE

[7] = biological target: T3, Serine/threonine-protein kinase DCLK3 (Homo sapiens) (UniProt Q9C098)
T3 sequence (whole entry): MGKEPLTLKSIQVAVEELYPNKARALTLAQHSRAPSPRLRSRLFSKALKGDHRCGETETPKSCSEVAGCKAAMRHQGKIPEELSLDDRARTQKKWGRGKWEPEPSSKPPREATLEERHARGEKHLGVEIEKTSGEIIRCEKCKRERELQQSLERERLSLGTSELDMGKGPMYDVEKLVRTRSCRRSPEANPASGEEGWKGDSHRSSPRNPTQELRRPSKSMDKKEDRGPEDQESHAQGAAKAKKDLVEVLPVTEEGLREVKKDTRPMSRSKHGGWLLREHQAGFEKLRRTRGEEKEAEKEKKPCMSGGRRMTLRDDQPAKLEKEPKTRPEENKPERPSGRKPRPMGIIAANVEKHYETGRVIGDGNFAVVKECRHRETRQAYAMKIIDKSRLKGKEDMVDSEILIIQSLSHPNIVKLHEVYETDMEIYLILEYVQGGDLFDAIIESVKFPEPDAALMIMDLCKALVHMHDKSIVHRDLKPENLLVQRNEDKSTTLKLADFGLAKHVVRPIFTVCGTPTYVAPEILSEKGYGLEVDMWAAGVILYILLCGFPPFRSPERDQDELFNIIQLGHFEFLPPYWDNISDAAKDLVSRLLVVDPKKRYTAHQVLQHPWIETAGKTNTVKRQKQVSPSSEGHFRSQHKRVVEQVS

Measured: % residual kinase activity

CN1CCN(c2cnc3c(C4CCN(C(=O)c5ccc(OC(F)(F)F)cc5N)CC4)ncnc3c2)CC1 [BAY-885]
inactive: [1] 86% | [2] 94% | [3] 104% | [4] 98% | [5] 115% | [6] 113% | [7] 92%
